In brackets after ≈: the same amount, converted by molar mass.
Key:
Vero = assay: Cytotoxicity against African green monkey vero cells assessed as reduction in cell viability measured after 48 hrs by MTT assay; type: functional, cell-based; conditions: Chlorocebus sabaeus
[1] = system: Mycobacterium tuberculosis; assay: microbe, parasite or virus in culture; conditions: H37Rv, 168 h
Description: Antimycobacterial activity against Mycobacterium tuberculosis H37Rv assessed as inhibition of bacterial growth measured after 7 days by microplate alamar blue assay

[2] = Metabolic stability in mouse liver microsomes at 0.5 uM measured after 15 to 120 mins in presence of NADPH by LC-MS/MS analysis; type: ADME, Microsome; conditions: time 15-120 min
[3] = Metabolic stability in mouse liver microsomes at 0.5 uM measured after 15 to 120 mins in absence of NADPH by LC-MS/MS analysis; type: ADME, Microsome; conditions: time 15-120 min
in vitro = conditions: monkey, Vero cells
Description: Selectivity index, ratio of IC50 for African green monkey vero cells to MIC for Mycobacterium tuberculosis H37Rv

[4] = system: Mycobacterium tuberculosis; type: functional, H37Rv; conditions: dose 100 mg/kg; route po; time 3-30 day
[5] = biological target: Voltage-gated inwardly rectifying potassium channel KCNH2 (Homo sapiens, UniProt Q12809)
Chain of Voltage-gated inwardly rectifying potassium channel KCNH2 (Q12809 whole entry): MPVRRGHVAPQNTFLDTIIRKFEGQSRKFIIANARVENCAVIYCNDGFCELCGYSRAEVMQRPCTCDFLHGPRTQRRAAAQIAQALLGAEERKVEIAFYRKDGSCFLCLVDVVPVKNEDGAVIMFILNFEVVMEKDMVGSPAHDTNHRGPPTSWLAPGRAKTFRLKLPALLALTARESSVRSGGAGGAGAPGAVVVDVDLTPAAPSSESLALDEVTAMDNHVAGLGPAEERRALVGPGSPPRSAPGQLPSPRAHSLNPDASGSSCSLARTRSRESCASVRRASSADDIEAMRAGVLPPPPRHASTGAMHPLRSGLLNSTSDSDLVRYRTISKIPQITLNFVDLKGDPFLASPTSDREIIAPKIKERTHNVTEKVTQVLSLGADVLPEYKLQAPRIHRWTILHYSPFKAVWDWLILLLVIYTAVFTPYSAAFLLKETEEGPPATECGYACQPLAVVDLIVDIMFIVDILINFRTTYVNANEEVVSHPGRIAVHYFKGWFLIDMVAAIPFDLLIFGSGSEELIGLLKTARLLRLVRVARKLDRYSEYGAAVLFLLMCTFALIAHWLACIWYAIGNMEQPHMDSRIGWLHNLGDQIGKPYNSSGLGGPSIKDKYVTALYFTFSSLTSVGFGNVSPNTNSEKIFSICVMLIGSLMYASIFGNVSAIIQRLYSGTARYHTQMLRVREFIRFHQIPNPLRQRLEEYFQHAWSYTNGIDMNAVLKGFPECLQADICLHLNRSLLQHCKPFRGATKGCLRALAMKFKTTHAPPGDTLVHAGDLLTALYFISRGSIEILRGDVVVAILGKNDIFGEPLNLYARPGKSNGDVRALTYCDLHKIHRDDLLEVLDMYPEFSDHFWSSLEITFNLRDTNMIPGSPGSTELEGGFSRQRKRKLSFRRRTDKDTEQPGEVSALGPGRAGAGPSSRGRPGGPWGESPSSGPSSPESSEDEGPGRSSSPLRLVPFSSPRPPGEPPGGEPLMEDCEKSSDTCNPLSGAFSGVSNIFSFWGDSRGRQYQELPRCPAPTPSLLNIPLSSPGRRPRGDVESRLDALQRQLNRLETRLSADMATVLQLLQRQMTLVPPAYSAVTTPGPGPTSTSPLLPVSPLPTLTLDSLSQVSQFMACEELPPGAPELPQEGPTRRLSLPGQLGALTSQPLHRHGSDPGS
Description: Inhibition of hERG potassium channel in HEK293 cells at 0.3 to 30 uM by whole-cell patch clamp assay

[6] = system: Mycolicibacterium smegmatis; assay: Antimycobacterial activity against Mycobacterium smegmatis harboring MsmgdeltammpL3/pMVGHI-mmpL3tb mutant assessed as reduction in bacterial growth measured after 16 hrs […]; type: functional
[7] = system: Mycolicibacterium smegmatis; assay: Antimycobacterial activity against Mycobacterium smegmatis harboring MsmgdeltammpL3/pMVGHI-mmpL3tb G253E mutant assessed as reduction in bacterial growth measured after 16 hrs […]; type: functional
[8] = system: Mycobacterium tuberculosis; assay: Antimycobacterial activity against Mycobacterium tuberculosis mc2 6206 assessed as decrease in trehalose dimycolate measured after 16 hrs using [14C]acetate by TLC analysis; type: functional, organism-based; conditions: DDE = dose-dependent effect
[9] = system: Mycobacterium tuberculosis; assay: Antimycobacterial activity against Mycobacterium tuberculosis mc2 6206 assessed as decrease in mycolic acid transfer to cell wall arabinogalactan measured after 16 hrs using [14C]acetate by TLC analysis; type: functional, organism-based; conditions: dose 0.0625-1 µg/ml, DDE = dose-dependent effect
[10] = system: Mycobacterium tuberculosis; assay: microbe, parasite or virus in culture; conditions: H37Rv mc2 6206, 16 h
Description: Antimycobacterial activity against Mycobacterium tuberculosis H37Rv mc2 6206 assessed as reduction in bacterial growth measured after 16 hrs by TLC analysis

SMILES | IC50 (Vero) | MIC90 [1] | Stability [2] | Stability [3] | selectivity ratio (in vitro) | also measured
O=C(NC1C2CC3CC(C2)CC1C3)c1cc(-c2ccc(Cl)nc2Cl)c[nH]1 (centres undefined) | > 64 µg/mL | 0.24 µg/mL (≈ 0.615 µM) | – | – | – | –
COc1ncc(-c2c[nH]c(C(=O)NC3C4CC5CC(C4)CC3C5)c2)cn1 (centres undefined) | – | 3.8 µg/mL (≈ 10.8 µM) | – | – | – | –
CN(C(=O)c1cc(-c2ccc(Cl)cc2Cl)cn1C)C1C2CC3CC(C2)CC1C3 (centres undefined) | – | > 32 µg/mL | – | – | – | –
O=C(NC12CC3CC(CC(C3)C1)C2)c1cc(-c2ccc(Cl)cc2)c[nH]1 | – | 0.155 µg/mL (≈ 0.437 µM) | – | – | – | –
Cc1nc(F)ccc1-c1c[nH]c(C(=O)NC2C3CC4CC(C3)CC2C4)c1 (centres undefined) | 27.7 µg/mL (≈ 78.4 µM) | 0.062 µg/mL (≈ 0.175 µM) | 32.3% | Stable | 447 | –
O=C(NC1CCCCCCC1)c1cc(-c2ccc(Cl)cc2)c[nH]1 | – | 0.24 µg/mL (≈ 0.725 µM) | – | – | – | –
O=C(NC1C2CC3CC(C2)CC1C3)c1cc(-c2ccncc2Cl)c[nH]1 (centres undefined) | 58.7 µg/mL (≈ 165 µM) | < 0.016 µg/mL | 73.4% | Stable | 3670 | –
O=C(NC12CC3CC(CC(C3)C1)C2)c1cc(-c2ccncc2Cl)c[nH]1 | – | 0.03 µg/mL (≈ 0.0843 µM) | 42.7% | Stable | – | –
O=C(NC12CC3CC(CC(C3)C1)C2)c1cc(-c2ccc(F)nc2F)c[nH]1 | – | < 0.016 µg/mL | 47.6% | Stable | – | Activity [4]: 1 log10CFU; IC50 [5]: > 30 µM
COc1cnccc1-c1c[nH]c(C(=O)NC2C3CC4CC(C3)CC2C4)c1 (centres undefined) | 58.8 µg/mL (≈ 167 µM) | 0.24 µg/mL (≈ 0.683 µM) | – | – | 245 | –
O=C(NC1C2CC3CC(C2)CC1C3)c1cc(-c2ccccc2F)c[nH]1 (centres undefined) | 12.6 µg/mL (≈ 37.2 µM) | < 0.016 µg/mL | 0% | Stable | 1320 | –
Cc1ccc(-c2c[nH]c(C(=O)NC3C4CC5CC(C4)CC3C5)c2)cn1 (centres undefined) | – | 1 µg/mL (≈ 2.98 µM) | – | – | – | –
O=C(NC1CCCCCCC1)c1cc(-c2ccncc2F)c[nH]1 | – | 0.06 µg/mL (≈ 0.19 µM) | – | – | – | –
O=C(NC1CCCCC1)c1cc(-c2ccc(Cl)cc2Cl)c[nH]1 | – | 6.5 µg/mL (≈ 19.3 µM) | – | – | – | –
CCCNC(=O)c1cc(-c2ccc(Cl)cc2Cl)c[nH]1 | – | 12.5 µg/mL (≈ 42.1 µM) | – | – | – | –
Nc1ncc(F)cc1-c1c[nH]c(C(=O)NC2C3CC4CC(C3)CC2C4)c1 (centres undefined) | 33.9 µg/mL (≈ 95.6 µM) | 0.44 µg/mL (≈ 1.24 µM) | – | – | 77 | –

SMILES | IC50 (Vero) | MIC90 [1] | Stability [2] | Stability [3] | selectivity ratio (in vitro) | also measured
O=C(NC1C2CC3CC(C2)CC1C3)c1cc(-c2cncnc2)c[nH]1 (centres undefined) | – | 0.96 µg/mL (≈ 2.98 µM) | – | – | – | –
O=C(NC1C2CC3CC(C2)CC1C3)c1cc(-c2ccc(F)nc2F)c[nH]1 (centres undefined) | – | < 0.016 µg/mL | 43.3% | Stable | – | Activity [4]: 2 log10CFU; MIC90 [6]: 0.5 µg/mL (≈ 1.4 µM); MIC=>90 [7]: 4 µg/mL (≈ 11.2 µM); inhibition [8]: Dde; inhibition [9]: Dde; IC50 [5]: > 30 µM; MIC90 [10]: 0.125 µg/mL (≈ 0.35 µM)
COc1cc(F)ccc1-c1c[nH]c(C(=O)NC2C3CC4CC(C3)CC2C4)c1 (centres undefined) | 22 µg/mL (≈ 59.7 µM) | < 0.016 µg/mL | – | – | 1380 | –
COc1ncccc1-c1c[nH]c(C(=O)NC2C3CC4CC(C3)CC2C4)c1 (centres undefined) | – | < 0.016 µg/mL | 0.63% | Stable | 737 | –
O=C(NC12CC3CC(CC(C3)C1)C2)c1cc(-c2ccncc2F)c[nH]1 | – | 0.06 µg/mL (≈ 0.177 µM) | – | – | – | –
O=C(NC1C2CC3CC(C2)CC1C3)c1cc(-c2cccnc2F)c[nH]1 (centres undefined) | > 64 µg/mL | 0.06 µg/mL (≈ 0.177 µM) | 0% | Stable | – | –
O=C(NC12CC3CC(CC(C3)C1)C2)c1cc(-c2ccc(F)cc2F)c[nH]1 | – | < 0.016 µg/mL | 57.4% | Stable | – | Activity [4]: 1.5 log10CFU; MIC90 [6]: 0.25 µg/mL (≈ 0.701 µM); MIC=>90 [7]: 2 µg/mL (≈ 5.61 µM); inhibition [8]: Dde; inhibition [9]: Dde; IC50 [5]: > 30 µM; MIC90 [10]: 0.0625 µg/mL (≈ 0.175 µM)
O=C(NC1C2CC3CC(C2)CC1C3)c1cc(-c2cccnc2Cl)c[nH]1 (centres undefined) | > 64 µg/mL | 0.28 µg/mL (≈ 0.787 µM) | – | – | – | –
O=C(NC1C2CC3CC(C2)CC1C3)c1cc(-c2ccc(F)nc2)c[nH]1 (centres undefined) | – | 0.09 µg/mL (≈ 0.265 µM) | – | – | 391 | –
O=C(NC1CCCCCC1)c1cc(-c2ccc(Cl)cc2Cl)c[nH]1 | – | 1.9 µg/mL (≈ 5.41 µM) | – | – | – | –
O=C(NC1C2CC3CC(C2)CC1C3)c1cc(-c2ccc(Cl)cc2)c[nH]1 (centres undefined) | 12.6 µg/mL (≈ 35.5 µM) | 0.1 µg/mL (≈ 0.282 µM) | – | – | 126 | –
O=C(NC1C2CC3CC(C2)CC1C3)c1cc(-c2ccncc2)c[nH]1 (centres undefined) | – | 0.45 µg/mL (≈ 1.4 µM) | – | – | 99 | –
O=C(NC12CC3CC(CC(C3)C1)C2)c1cc(-c2ccc(Cl)cc2Cl)c[nH]1 | – | 0.058 µg/mL (≈ 0.149 µM) | – | – | – | –
COc1cc(F)ccc1-c1c[nH]c(C(=O)NC23CC4CC(CC(C4)C2)C3)c1 | – | < 0.016 µg/mL | 23.3% | Stable | – | –
O=C(NC1C2CC3CC(C2)CC1C3)c1cc(-c2cccnc2)c[nH]1 (centres undefined) | 39.5 µg/mL (≈ 123 µM) | 0.04 µg/mL (≈ 0.124 µM) | – | – | 988 | –

Source: ChEMBL document CHEMBL5126604, “Design, Synthesis, and Biological Evaluation of Pyrrole-2-carboxamide Derivatives as Mycobacterial Membrane Protein Large 3 Inhibitors for Treating Drug-Resistant Tuberculosis” (J Med Chem, 2022)
